Measurements from patent publication US4847272A, “Thianaphthene derivatives” (Sankyo Company Limited, priority 1986, dated 1989).
Where a name gives a salt, the structure may show the parent alone.

Assays:
[1] = target: T1, Thromboxane A2 Synthetase (Oryctolagus cuniculus, UniProt G1TAZ9); assay: Inhibition of Thromboxane A2 Synthetase, rabbit platelet microsomes; format: biochemical; conditions: 1-[14C] arachidonic acid 0.1 mM, 1 minute at 22° C., read-out: IC50, concentration required to inhibit the activity of thromboxane synthetase by 50%
T1 construct: The platelet microsome fraction was separated from rabbit and from human blood; from tissue; host or cells: rabbit blood platelets, microsome fraction
T1 sequence (G1TAZ9 1-530): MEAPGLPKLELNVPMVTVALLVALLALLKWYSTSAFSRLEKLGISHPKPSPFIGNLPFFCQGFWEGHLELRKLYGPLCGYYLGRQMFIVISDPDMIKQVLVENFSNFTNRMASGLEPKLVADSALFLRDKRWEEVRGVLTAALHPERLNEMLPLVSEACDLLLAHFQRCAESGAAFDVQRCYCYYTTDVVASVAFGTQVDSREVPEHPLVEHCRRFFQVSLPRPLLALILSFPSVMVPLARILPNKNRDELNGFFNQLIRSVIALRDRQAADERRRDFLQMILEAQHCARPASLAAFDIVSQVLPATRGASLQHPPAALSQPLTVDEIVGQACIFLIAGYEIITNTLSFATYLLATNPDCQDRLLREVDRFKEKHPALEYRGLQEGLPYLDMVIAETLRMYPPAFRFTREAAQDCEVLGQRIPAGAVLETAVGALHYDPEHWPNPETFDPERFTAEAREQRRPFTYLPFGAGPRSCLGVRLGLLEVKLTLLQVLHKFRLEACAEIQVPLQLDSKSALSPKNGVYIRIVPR
Description: (§1) The platelet microsome fraction was separated from rabbit and from human blood by the method of Needleman et al. [Needleman et al., Science, 193, 163 (1976)]. The microsomal TXA2 synthetase activity in the presence of various of the compounds of the invention at various concentrations was assayed by a modification of the method of […] et al. [[…] et al., Prostaglandins, 21, 543 (1981)] by incubating the microsome fractions with labelled 1-[^14 C] arachidonic acid at a concentration of 0.1 mM for 1 minute at 22° C., to a final volume of 0.2 ml. The reaction was terminated by the addition of […] of 0.2M citric acid, and then the mixture was extracted with 1.5 ml of ethyl acetate. […] The developing solvent for the chromatography was a 90:8:1:0.8 by volume mixture of chloroform, methanol, acetic acid and water. […] The results are shown in the following Tables 1 and 2 as the IC50, i.e. the concentration required to inhibit the activity of thromboxane synthetase by 50%. The results using rabbits platelet microsomes are given in Table 1, whilst the results using human platelet microsomes are given in Table 2.

[2] = target: T2, Thromboxane A2 Synthetase (Homo sapiens, UniProt P24557); assay: Inhibition of Thromboxane A2 Synthetase, human platelet microsomes; format: biochemical; conditions: 1-[14C] arachidonic acid 0.1 mM, 1 minute at 22° C., read-out: IC50, concentration required to inhibit the activity of thromboxane synthetase by 50%
T2 construct: The platelet microsome fraction was separated from rabbit and from human blood; from tissue; host or cells: human blood platelets, microsome fraction
T2 sequence (P24557 1-533): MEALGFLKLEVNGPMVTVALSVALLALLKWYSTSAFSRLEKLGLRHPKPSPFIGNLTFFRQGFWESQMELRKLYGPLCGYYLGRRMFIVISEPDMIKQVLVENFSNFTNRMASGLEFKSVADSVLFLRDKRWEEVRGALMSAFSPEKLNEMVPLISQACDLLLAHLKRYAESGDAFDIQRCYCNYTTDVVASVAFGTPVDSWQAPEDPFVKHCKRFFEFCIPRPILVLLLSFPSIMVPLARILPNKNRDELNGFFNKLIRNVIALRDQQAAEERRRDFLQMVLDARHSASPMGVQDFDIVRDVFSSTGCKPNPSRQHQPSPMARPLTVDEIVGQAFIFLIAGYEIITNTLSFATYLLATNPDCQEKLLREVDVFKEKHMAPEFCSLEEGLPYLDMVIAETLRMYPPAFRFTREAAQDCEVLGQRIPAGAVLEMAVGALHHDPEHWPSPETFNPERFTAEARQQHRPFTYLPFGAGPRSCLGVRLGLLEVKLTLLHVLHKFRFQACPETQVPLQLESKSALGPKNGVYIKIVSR
Description: as §1

[3] = system: rabbits; assay: Antithrombotic Activity in Rabbits (sudden death after i.v. arachidonic acid); format: in vivo, male Japanese white rabbits; conditions: Oryctolagus cuniculus, 1 h; oral, one hour before 1.3 mg/kg arachidonic acid i.v.; Probit's method
Description: This test was carried out by a modification of the method of Silver et al. [Science, 183, 1085 (1974)]. The test animals used were male Japanese white rabbits of approximately 3 kg body weight. Each group of rabbits was administered orally the test compound at an appropriate dose and then, one hour after the oral administration, each was given 1.3 mg/kg of arachidonic acid by intravenous injection. The test animals were observed and sudden deaths during the test period were recorded. The ED50 was determined by Probit's method. Unmedicated rabbits were employed as a control, without administering any test compound, but these were all dead within several minutes after the injection of arachidonic acid, as a result of pulmonary thromboembolisms.

| IC50 [1] [nM] | IC50 [2] [nM] | Compound | ED50 [3] [mg/kg] |
| --- | --- | --- | --- |
| 86 |  | O=C(O)C1CCc2sc(Cn3ccnc3)cc2C1 (stereo not drawn) [Compound C, 4,5,6,7-tetrahydro-2-(1-imidazolyl)methylthianaphthene-5-carboxylic acid hydrochloride] |  |
| 26 | 30 | O=C(O)C1CCc2cc(Cn3ccnc3)sc2C1 (stereo not drawn) [Compound A, 4,5,6,7-tetrahydro-2-(1-imidazolyl)methylthianaphthene-6-carboxylic acid hydrochloride] | 0.27 |
| 13 | 31 | O=C(O)C1=Cc2sc(Cn3ccnc3)cc2CC1 [Compound B, sodium 4,5-dihydro-2-(1-imidazolyl)methylthianaphthene-6-carboxylate] | 0.12 |
| 106 |  | Cl.O=C(O)c1ccc(OCCn2ccnc2)cc1 [Dazoxiben, 4-[2-(1-imidazolyl)ethoxy]benzoic acid hydrochloride, reference compound] | 1.1 |
